No end group written: not given here.
Columns and labels:
[1] = Peptide solubility by HPLC; type: physicochemical; conditions: reconstituted RG54 peptide; assayed using HPLC
Description: (§1) Peptide (lyophilised powder) produced by Red Glead (Lund, Sweden) was reconstituted in Milli-Q water and then either used directly or mixed in a 1:1 ratio with 6 mol/l guanidine HCl in 2× PBS to give a monodisperse solution, followed by desalting using a column equilibrated with PBS, pH 7.4, using ÄKTAxpress fast protein LC (GE Healthcare, Uppsala, Sweden). Peptide integrity was analysed using circular dichroism spectroscopy. Peptide solubility was assayed at Red Glead using HPLC. Peptide stability in physiologic buffer or blood plasma (human or mouse) over 2 h was assayed at the Science for Life Laboratory (Uppsala, Sweden). For detailed methods, please refer to the electronic supplementary material (ESM) Methods.
(§2) The peptide RG54 was synthesised with natural amino acids and then modified with an acetylation cap on the N-terminus in order to reduce the susceptibility for proteolytic degradation by […] (ESM Fig. 3a). […] Peptide integrity following the denaturation/refolding procedure was confirmed using gel electrophoresis and circular dichroism spectroscopy analyses (ESM Fig. 3d,e) and by peptide stability assays (buffer or plasma) (ESM Fig. 3f).

[2] = Peptide homogeneity (particle size) by dynamic light scattering; type: physicochemical
Description: as §1, §2
ESM Figure 3. Peptide characterization for native or refolded RG54.
(a) Full peptide sequence. Particle size distribution of RG54 was analysed by DLS and frequency curves generated for Native (b) or Refolded (c) peptide. […]

Apoe−/− mice = assay: Atherosclerosis model, western diet; type: in vivo, mouse; conditions: female Apoe−/− mice, i.p. three times a week for 6 weeks, RG54 12 mg/kg, ApoA-I 14 mg/kg, liraglutide 0.3 mg/kg, Oil Red O, n=9, vs NaCl
Description: Female Apoe^−/− mice (002052, Jackson Laboratory, Bar Harbor, ME, USA) at 12 weeks of age were acclimatised for 1 week, then changed to the RD western diet (D12079B) and injected i.p. three times per week for 6 weeks with treatments as indicated in ESM Fig. 1. At the end of the experimental period, the mice were euthanised and whole aortas were collected, fixed and stained for analysis. See ESM Methods for more details.
Apoe^−/− mice, which develop aortic atherosclerosis, were used to test if RG54 reduces the formation of atherosclerotic plaques in vivo. Apoe^−/− mice were obtained at 12 weeks of age and acclimatised for 1 week, after which baseline body weights, dual-energy x-ray absorptiometry body scans and serum samples were collected. […] Serum lipid profiles were measured at the start and end of the experimental period (ESM Fig. 5).
Fig. 2 Effect of ApoA-I or RG54 treatment on early, low-burden atherosclerotic lesion development in Apoe^−/− mice. […] (a) Body weight was measured weekly (n=9). […] (d–f) After euthanasia the aortic arch and abdominal aorta were removed, fixed and prepared en face, then atherosclerotic plaques were stained using Oil Red O. Representative aorta images (d) shown as raw images and images analysed for Oil Red O stained areas. […] Stained areas were then quantified to give the total plaque area (e) and total plaques per aorta (f) (n=9). […]

Ac-AEYHAKATEHLSTLSEKAKPALEDLRQGLLPVLESFKVSFLSALEEYTKKLNTQ [RG54]
solubility [1]: > 3000 µg/mL
homogeneity (DLS) after chemical denaturation and refolding ([2]; 6 mol/l guanidine HCl in 2x PBS 1:1, desalted into PBS pH 7.4): monodisperse preparations
homogeneity, dynamic size range (DLS) ([2]; native peptide reconstituted in Milli-Q water, five individual experiments): significant inter- and intra-sample heterogeneity
number of plaques per mouse (Apoe−/− mice): significantly reduced
total plaque area (percentage of the aortic surface) (Apoe−/− mice): significantly reduced

Reference: paper PMC6560211, “ApoAI-derived peptide increases glucose tolerance and prevents formation of atherosclerosis in mice” (Diabetologia, 2019)
